# Values joined by “and” are separate entries in the source; they are usually repeats but may differ in a detail not shown here. Equal values may be shown once.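 Where inhibition never reached the appropriate level, the endpoint shown equals the highest concentration tested. Otherwise, values were interpolated linearly from a five-concentration, 48-hour dose response in 96-well plates. GI50 marks 50% less growth. TGI: concentration producing complete growth inhibition.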
# Tests used:
# Assay in all cases: NCI tumour cell line growth inhibition, 48 h
# [1] = system: COLO 205 colon
# [2] = system: SK-OV-3 ovarian
# [3] = system: U251 CNS
# [4] = system: A549 NSCLC
# [5] = system: SK-MEL-5 melanoma
# [6] = system: MDA-MB-435
# [7] = system: LOX IMVI melanoma
# [8] = system: SNB-19 CNS
# [9] = system: SK-MEL-28 melanoma
# [10] = system: NCI-H460 lung
# [11] = system: SNB-75 CNS
# [12] = system: SF-539 CNS
# [13] = system: OVCAR-5 ovarian
# [14] = system: HOP-62 NSCLC
# [15] = system: SW-620 colon
# [16] = system: SF-295 CNS
# [17] = system: HL-60(TB) leukemia
# [18] = system: M14 melanoma
# [19] = system: OVCAR-3 ovarian
# [20] = system: ACHN renal
# [21] = system: OVCAR-4 ovarian
# [22] = system: HCC-2998 colon
# [23] = system: HCT-116 colon
# [24] = system: MDA-MB-231 breast
# [25] = system: MALME-3M melanoma
# [26] = system: MCF7 breast
# [27] = system: SF-268 CNS
# [28] = system: UO-31 renal
# [29] = system: TK-10 renal
compound,measurement,setting,value
CO[C@@H](C(=O)N1Cc2[nH]nc(NC(=O)c3ccc(N4CCN(C)CC4)cc3)c2C1)c1ccccc1,TGI,[1],1030 nM and 625 nM
same,GI50,[2],591 nM and 863 nM
same,TGI,[2],> 41200 nM
same,GI50,[3],2160 nM and 1510 nM
same,TGI,[3],> 50100 nM
same,GI50,[4],419 nM and 158 nM
same,TGI,[4],> 69600 nM
same,GI50,[5],1650 nM and 2760 nM
same,TGI,[5],12100 nM and > 10000 nM
same,GI50,[6],2690 nM and 3080 nM
same,TGI,[6],17400 nM and > 10000 nM
same,GI50,[7],255 nM and 82.5 nM
same,TGI,[7],2050 nM and 1820 nM
same,GI50,[8],4020 nM and 2930 nM
same,TGI,[8],> 100000 nM
same,GI50,[9],3110 nM and 2720 nM
same,TGI,[9],20900 nM and > 10000 nM
same,GI50,[10],224 nM and 99.7 nM
same,TGI,[10],18000 nM and > 10000 nM
same,GI50,[11],215 nM
same,TGI,[11],1660 nM
same,GI50,[12],459 nM and 105 nM
same,TGI,[12],12000 nM and 5630 nM
same,GI50,[13],1350 nM and 850 nM
same,TGI,[13],> 68800 nM
same,GI50,[14],1040 nM and 585 nM
same,TGI,[14],19300 nM and > 10000 nM
same,GI50,[15],314 nM and 129 nM
same,TGI,[15],22300 nM and > 10000 nM
same,GI50,[16],715 nM and 146 nM
same,TGI,[16],> 100000 nM
same,GI50,[17],3250 nM and 4350 nM
same,TGI,[17],28300 nM and > 10000 nM
same,GI50,[18],3730 nM and 2340 nM
same,TGI,[18],23400 nM and > 10000 nM
same,GI50,[19],866 nM and 1130 nM
same,TGI,[19],> 87000 nM
same,GI50,[20],4970 nM and 6660 nM
same,TGI,[20],> 69600 nM
same,GI50,[21],610 nM and 2820 nM
same,TGI,[21],> 52400 nM
same,GI50,[22],525 nM and 503 nM
same,TGI,[22],46000 nM and > 10000 nM
same,GI50,[23],117 nM and 87.9 nM
same,TGI,[23],6670 nM and > 8710 nM
same,GI50,[24],562 nM and 142 nM
same,TGI,[24],> 70500 nM
same,GI50,[25],509 nM and 4410 nM
same,TGI,[25],22900 nM and > 10000 nM
same,GI50,[26],104 nM and 73.6 nM
same,TGI,[26],23100 nM and > 10000 nM
same,GI50,[27],1060 nM and 889 nM
same,TGI,[27],8080 nM and 4640 nM
same,GI50,[28],9330 nM and 3670 nM
same,TGI,[28],33800 nM and > 10000 nM
same,GI50,[29],3280 nM and 2780 nM
same,TGI,[29],67200 nM and > 10000 nM
